Measurements as given in patent US10093627B2, “Tetrahydroquinoline derivatives and their use as Epac inhibitors” (Institut National de la Sante et de la Recherche Medicale …, priority 2012, dated 2018).
pEC50, pIC50: −log10 of the molar value.

How the values were obtained:
Epac2(B) = target: T1, Epac2(B) (Homo sapiens, UniProt Q8WZA2); assay: In vitro GEF activity (initial velocity of GDP exchange on Rap1A) of Epac2(B); format: biochemical; details: for Antagonism of cAMP-activated Epac2(B) GEF activity: compound 30 μM, 300 μM cAMP, FIG. 6C
T1 construct: Human Epac2(B) (amino acids 283-1011) lacks the first 283 amino acids of Epac2; made in house; host or cells: Escherichia coli Rosetta 2(DE3)
T1 sequence (Q8WZA2 283-1011): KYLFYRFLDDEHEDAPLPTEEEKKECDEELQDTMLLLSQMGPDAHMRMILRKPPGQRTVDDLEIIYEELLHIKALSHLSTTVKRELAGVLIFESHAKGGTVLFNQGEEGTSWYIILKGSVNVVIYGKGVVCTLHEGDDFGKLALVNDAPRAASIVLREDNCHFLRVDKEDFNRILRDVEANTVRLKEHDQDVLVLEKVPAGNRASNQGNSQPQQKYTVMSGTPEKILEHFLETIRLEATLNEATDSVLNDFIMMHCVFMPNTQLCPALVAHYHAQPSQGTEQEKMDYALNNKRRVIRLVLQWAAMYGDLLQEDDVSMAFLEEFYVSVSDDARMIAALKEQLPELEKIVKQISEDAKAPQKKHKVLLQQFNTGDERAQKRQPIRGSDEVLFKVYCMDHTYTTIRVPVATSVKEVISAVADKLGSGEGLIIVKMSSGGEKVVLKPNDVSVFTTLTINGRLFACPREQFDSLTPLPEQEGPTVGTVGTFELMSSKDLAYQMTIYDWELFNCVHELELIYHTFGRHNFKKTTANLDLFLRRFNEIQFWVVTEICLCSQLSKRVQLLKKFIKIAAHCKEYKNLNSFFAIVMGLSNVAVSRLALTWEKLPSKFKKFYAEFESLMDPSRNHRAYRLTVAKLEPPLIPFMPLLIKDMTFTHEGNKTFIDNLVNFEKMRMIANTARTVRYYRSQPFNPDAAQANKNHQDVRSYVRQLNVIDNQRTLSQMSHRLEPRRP
Text: Human Epac2(AB) (amino acids 43-1011) carries both the CNB-A and the CNB-B domains. Human Epac2(B) (amino acids 283-1011) lacks the first 283 amino acids of Epac2. It is therefore deleted of its CNB-A and DEP domains, but retains the CNB-B domain and the full catalytic region. Epac2(AB) was obtained by HindIII/NotI restriction and Epac2(B) was obtained by Ssp1/Not1 restriction of a human Epac2A cDNA (a gift from Ann M Graybiel, Department of Brain and Cognitive Sciences, MIT, Cambridge). Both cDNA fragments were inserted into pET41a (Novagen), expressed in Escherichia coli Rosetta 2(DE3) (Novagen), and the GST-tagged fusion proteins were purified by nickel-nitrilotriacetic acid beads (Qiagen), as described in D. Courilleau, et al., Identification of a tetrahydroquinoline analog as a pharmacological inhibitor of the cAMP-binding protein Epac, J. Biol. Chem. 287 (2012) 44192-44202).
(§1) In vitro GDP exchange catalyzed by Epac was measured using purified recombinant Epac isoforms and Rap1A loaded with Bodipy-GDP, as described in D. Courilleau, et al (above mentioned). The GEF activity of Epac proteins was initiated by injection of the agonist. Stock solutions of CE3F4 and its analogs (12 mM in 100% DMSO) were kept at −20° C. and were diluted in assay buffer (0.67% final DMSO concentration) just before use for GDP exchange assays. The release of Bodipy-GDP was measured in real time as the decay of fluorescence. A single exponential was fit to the time-course data using the Graphpad Prism program. The initial velocity (Vi) of GDP exchange on Rap1 was calculated as described in D. Courilleau et al.).
(§2) Data are expressed as mean±S.D. Differences in quantitative variables were examined by unpaired one- or two-tailed Student's t test. EC50 and IC50 values were computed according to a four-parameters dose-response model and compared on the basis of the extra sum-of square F test, using Graphpad Prism. Two-tailed Wilcoxon matched-pair signed rank tests were performed using GraphPad Prism.

Epac1 [1] = target: T2, Epac1 (Homo sapiens, UniProt O95398); assay: In vitro GEF activity (initial velocity of GDP exchange on Rap1A) of Epac1; format: biochemical; details: for pEC50: Epac1 GEF activity toward Rap1, Epac1 activated by 20 μM 007, mean of n=4 to 9 independent determinations; for Dose-response curve of inhibition of 007-activated Epac1 GEF activity, comparison between compounds: Epac1 activated by 20 μM 007, FIG. 5; for Antagonism of cAMP-activated Epac1 GEF activity: compound 30 μM, 300 μM cAMP, FIG. 6C
T2 construct: Recombinant human Epac1 (residues 149-881), deleted of its Dishevelled, Egl-10, and Pleckstrin (DEP) domain; made in house
T2 sequence (O95398 149-881 isoform O95398-3): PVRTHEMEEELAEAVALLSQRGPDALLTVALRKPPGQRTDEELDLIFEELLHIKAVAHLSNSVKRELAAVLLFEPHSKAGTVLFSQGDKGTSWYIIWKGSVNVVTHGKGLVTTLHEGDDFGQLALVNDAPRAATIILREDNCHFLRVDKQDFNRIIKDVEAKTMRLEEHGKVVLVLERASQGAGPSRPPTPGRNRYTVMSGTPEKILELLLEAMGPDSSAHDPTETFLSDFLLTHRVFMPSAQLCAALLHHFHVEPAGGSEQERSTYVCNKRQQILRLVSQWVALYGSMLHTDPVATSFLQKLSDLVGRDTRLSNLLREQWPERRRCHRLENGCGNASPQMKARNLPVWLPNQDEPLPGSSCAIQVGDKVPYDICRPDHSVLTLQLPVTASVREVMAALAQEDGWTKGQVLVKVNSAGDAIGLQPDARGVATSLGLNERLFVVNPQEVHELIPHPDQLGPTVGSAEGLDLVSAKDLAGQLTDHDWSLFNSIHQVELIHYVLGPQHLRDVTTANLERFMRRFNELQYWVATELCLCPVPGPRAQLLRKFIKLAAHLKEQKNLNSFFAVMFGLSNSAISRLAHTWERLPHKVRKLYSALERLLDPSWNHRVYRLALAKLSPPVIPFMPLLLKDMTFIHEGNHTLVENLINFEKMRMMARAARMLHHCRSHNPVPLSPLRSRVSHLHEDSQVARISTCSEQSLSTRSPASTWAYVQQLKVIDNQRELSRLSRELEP
Procedure: Protein NCBI Reference Sequences for human Epac1 and Epac2 are NP_006096 and NP_008954, respectively. Recombinant human Epac1 (residues 149-881), deleted of its Dishevelled, Egl-10, and Pleckstrin (DEP) domain, and human Rap1A were produced with GST as a fusion tag (D. Courilleau et al., Identification of a tetrahydroquinoline analog as a pharmacological inhibitor of the cAMP-binding protein Epac, J. Biol. Chem. 287 (2012) 44192-44202).
as §1, §2

Epac1 [2] = target: T2, Epac1; assay: Epac1 nucleotide exchange activity, multipoint (time-course) method, bGDP-loaded GST-Rap1A; format: biochemical; details: 25 μM compound 009; 2 μM compound 007; FIG. 1
Procedure: Epac1 nucleotide exchange activity was measured: • in the absence of compound 007, • or in the presence of 2 μM of compound 007, either alone or with 25 μM of compound 009, • or with 20 μM of CE3F4.
Variations of RFU (Relative Fluorescence Units) were studied as a function of time and fitted to single exponentials. Reported values are mean±SEM (n=3). (see Materiel and Methods).
Concerning FIG. 1, a “multipoint” (time-course) method was used. All components except the agonist (007) were mixed in a well and the exchange activity of Epac1 was initiated by injection of the agonist. GST-Rapt was preloaded with a fluorescent derivative of GDP, and the Epac1-catalyzed nucleotide exchange was measured using a large excess of non-fluorescent GDP, by taking advantage of the spectroscopic difference between free and Rap1-bound fluorescently labeled GDP. The principle of the method is similar to that reported in particular by Van den Berghe et al. (1997; Oncogene 15, 845), except that Bodipy FL-labeled GDP (bGDP) was used here, rather than 2′,3′-bis(O)—N-methylanthraniloyl-GDP (mant-GDP). […]

[3] = system: Epac1-induced Rap1 activation in HEK293 cells; assay: Epac1-induced Rap1 activation, Rap1-GTP pull-down in HEK293 cells; format: cell-based; details: HEK293 cells overexpressing Epac1 vs empty vector; FIG. 2A
Procedure: HEK293 cells were transfected with either pcDNA3 control vector or Epac1 (see FIG. 2A).
HEK293 cells were transfected with Epac1 and 24 h after transfection, cells were preincubated or not with CE3F4 for 30 min and were then treated or not with Sp-007 (10 μM) for 10 min (see FIG. 2B).
HEK293 cells overexpressing β1AR (Beta-1 adrenergic receptors) and transfected with Epac1 were pretreated or not with CE3F4 and stimulated or not with Iso (10 μM) for 10 min (see FIG. 2C).
Amounts of Rap1-GTP were determined by pull-down assays (see Material and Methods). The bar graph represents the mean±S.E.M. of 5 (FIG. 2A, 2B) or 3 (FIG. 2C) independent experiments. Results are expressed as the percentage of unstimulated control cells.
Ras and Rap1 pull-down experiments were performed using a GST fusion protein containing respectively the Ras binding domain of Raf1-RBD and the Rap1 binding domain of Ral-GDS as previously described (Métrich et al., 2008). Cells were starved for 1 h before stimulation in MEM free with penicillin-streptomycin (1%). After stimulation, cells were lysed in RIPA buffer (50 mM Tris-HCl, pH 7.5; 500 mM NaCl; 20 mM MgCl2; 0.5% deoxycholic acid; 0.1% SDS; 1% Triton X-100; 1 mM PMSF; protease and phosphatase inhibitors) and 500 μg of protein were incubated with either GST-Raf1-RBD (for Ras) or Ral-GDS (for Rap1) coupled to glutathione-Sepharose beads (Amersham Biosciences) for 1h at 4° C. Beads were then washed three times in washing buffer (50 mM Tris-HCl, pH 7.5; 150 mM NaCl, 20 mM MgCl2, 1% Triton X-100; 0.1 mM PMSF; protease and phosphatase inhibitors). Rap1-GTP or Ras samples and corresponding total lysates were separated on SDS-PAGE gels and transferred onto a polyvinylidene difluoride (PVDF) membrane (Amersham Pharmacia Biotech).

## C[C@@H]1CCc2c(cc(Br)c(F)c2Br)N1C=O [(R)-CE3F4]
Epac2(B); Epac2(B) activated by 300 μM cAMP
  pIC50: 4.36
Epac1 [1]; 007-activated Epac1
  IC50 smaller than that of racemic CE3F4 (Epac1 GEF activity): about 2 fold
  IC50 smaller than the IC50 values of (S)-CE3F4 and compound f) (Epac1 GEF activity): about 10 fold
Epac1 [1]
  pEC50: 5.24
  Dose-response curve of inhibition of 007-activated Epac1 GEF activity, comparison between compounds: more potent Epac inhibitor
Epac1 [1]; Epac1 activated by 300 μM cAMP
  pIC50: 5.38

## Nc1nc2c(nc(Sc3ccc(Cl)cc3)n2[C@@H]2O[C@@H]3COP(=O)(O)O[C@H]3[C@H]2O)c(=O)[nH]1 [Compound 009, 8-(4-chlorophenylthio)-guanosine-3′,5′-cyclic monophosphate, reference compound]
Epac1 [2]
  Inhibition of the exchange reaction induced by Epac1 plus 007: inhibitory effect

## O=CN1CCCc2c1cc(Br)c(F)c2Br [Compound f)]
Epac2(B)
  Antagonism of cAMP-activated Epac2(B) GEF activity: antagonistic properties
Epac1 [1]
  pEC50: 4.30
  Dose-response curve of inhibition of 007-activated Epac1 GEF activity, comparison between compounds: not significantly different
  Antagonism of cAMP-activated Epac1 GEF activity: antagonistic properties

## CO[C@H]1C2OP(O)(=S)OC[C@H]2O[C@H]1n1c(Sc2ccc(Cl)cc2)nc2c(N)ncnc21 (stereo partly shown) [Sp-007, Sp-8-pCPT-2′-O-Me-cAMPS, reference compound]
[3]
  Rap1 activation (Rap1-GTP/Total Rap1) by agonist: robust activation of Rap1

## CC1CCc2c(ccc(F)c2Br)N1C=O (stereo not shown) [a)]
Epac2(B)
  Antagonism of cAMP-activated Epac2(B) GEF activity: antagonistic properties
Epac1 [1]
  Antagonism of cAMP-activated Epac1 GEF activity: antagonistic properties

## CC1CCc2cc(F)c(Br)cc2N1C=O (stereo not shown) [b), reference compound]
Epac2(B)
  Antagonism of cAMP-activated Epac2(B) GEF activity: no significant inhibitory activity
Epac1 [1]
  Antagonism of cAMP-activated Epac1 GEF activity: no significant inhibitory activity

## CC1CCc2c(ccc(F)c2C=O)N1C=O (stereo not shown) [d), reference compound]
Epac2(B)
  Antagonism of cAMP-activated Epac2(B) GEF activity: no significant inhibitory activity
Epac1 [1]
  Antagonism of cAMP-activated Epac1 GEF activity: no significant inhibitory activity

## CC1CCc2c(Br)cc(Br)cc2N1C=O (stereo not shown) [e)]
Epac2(B)
  Antagonism of cAMP-activated Epac2(B) GEF activity: antagonistic properties
Epac1 [1]
  Antagonism of cAMP-activated Epac1 GEF activity: antagonistic properties

## CC(=O)N1c2cc(Br)c(F)c(Br)c2CCC1C (stereo not shown) [g)]
Epac1 [1]
  Antagonism of cAMP-activated Epac1 GEF activity: antagonistic properties

## CC1CCc2c(cc(Br)c(F)c2Br)N1 (stereo not shown) [h)]
Epac1 [1]
  Antagonism of cAMP-activated Epac1 GEF activity: antagonistic properties
